According to patent publication US12655150B2 (Cedilla Therapeutics, Inc., priority 2021, dated 2026):

test system: NCI-H226; experiment: 72H TEAD Proliferation Assay (Cell Titer Glo 2.0); assay type: cell-based; details: Homo sapiens, NCI-H226, 72 h, CTG 2.0, cell line not given (NCI-H226 responsive, NCI-H28 non-responsive)
How it was run: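 NF2-deficient NCI-H226 mesothelioma cells, TEAD-dependent, treated 72 h; NF2-wild-type NCI-H28 serves as the TEAD-independent counter-screen for off-target cytotoxicity. Viable cells quantified by CellTiter-Glo 2.0 luminescence; background and time-zero signal subtracted, GI50 from nonlinear dose-response fit.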

Compound | GI50 [nM]
C=CC(=O)Nc1ccc2c(C)cc(-c3ccc(C(F)(F)F)cc3)nc2c1 [I-85, N-(4-Methyl-2-(4-(trifluoromethyl)phenyl)quinolin-7-yl)acrylamide] | ≤ 1000
CC1(C)CCN(c2nc3cc(C(=O)O)ccc3n3cccc23)CC1 [I-3, 4-(4,4-Dimethylpiperidin-1-yl)pyrrolo[1,2-a]quinoxaline-7-carboxylic acid] | 1000 to 5000
CC(C)(C)c1ccc(-c2nc3cc(C(=O)O)ccc3n3ccnc23)c(F)c1 [I-59, 4-(4-(tert-Butyl)-2-fluorophenyl)imidazo[1,2-a]quinoxaline-7-carboxylic acid] | 1000 to 5000
Cc1cc(-c2ccc(C(F)(F)F)cc2F)nc2cc(C(=O)O)ccc12 [I-87, 2-(2-Fluoro-4-(trifluoromethyl)phenyl)-4-methylquinoline-7-carboxylic acid] | ≤ 1000
Cc1cc(C(F)(F)F)ccc1-c1nc2cc(C(=O)O)ccc2n2cccc12 [I-52, 4-(2-Methyl-4-(trifluoromethyl)phenyl)pyrrolo[1,2-a]quinoxaline-7-carboxylic acid] | 1000 to 5000
O=C(O)c1ccc2c(c1)nc(N1CCC(F)(F)C1)c1cccn12 [I-11, 4-(3,3-Difluoropyrrolidin-1-yl)pyrrolo[1,2-a]quinoxaline-7-carboxylic acid] | > 10000
O=C(O)c1ccc2c(c1)nc(Oc1cccc(C(F)(F)F)c1)c1cccn12 [I-24, 4-(3-(Trifluoromethyl)phenoxy) pyrrolo[1,2-a] quinoxaline-7-carboxylic acid] | 1000 to 5000
CC(C)(C)c1ccc(-c2nc(C(=O)O)cn3cncc23)cc1 [I-94, 8-(4-(tert-Butyl)phenyl)imidazo[1,5-a]pyrazine-6-carboxylic acid] | > 10000
O=C(O)c1ccc2c(c1)nc(N1CCC(C(F)(F)F)C1)c1cccn12 (stereo not drawn) [I-10, 4-(3-(Trifluoromethyl)pyrrolidin-1-yl)pyrrolo[1,2-a]quinoxaline-7-carboxylic acid] | 1000 to 5000
COc1ccc(-c2nc3cc(C(=O)O)ccc3n3cccc23)cc1 [I-46, 4-(4-Methoxyphenyl)pyrrolo[1,2-a]quinoxaline-7-carboxylic acid] | > 10000
O=C(O)c1ccc2c(c1)nc(C1CCC1)c1nccn12 [I-71, 4-Cyclobutylimidazo[1,2-a]quinoxaline-7-carboxylic acid] | > 10000
O=C(O)c1ccc2c(c1)nc(N1CCC3(CCC3)CC1)c1cccn12 [I-6, 4-(7-Azaspiro[3.5]nonan-7-yl)pyrrolo[1,2-a]quinoxaline-7-carboxylic acid] | ≤ 1000
O=C(O)c1ccc2c(c1)nc(C1CCC1)c1cccn12 [I-113, 4-Cyclobutylpyrrolo[1,2-a]quinoxaline-7-carboxylic acid] | > 10000
C=CC(=O)Nc1cccc2nc(-c3ccc(C(C)(C)C)cc3)c(C)cc12 [I-99, N-(2-(4-(tert-butyl)phenyl)-3-methylquinolin-5-yl)acrylamide] | > 10000
O=C(O)c1ccc2c(c1)nc(N1CCC3(CCCCCC3)C1)c1cccn12 [I-25, 4-(2-Azaspiro[4.6]undecan-2-yl)pyrrolo[1,2-a]quinoxaline-7-carboxylic acid] | 5000 to 10000
CN(C)C(=O)c1ccc2c(c1)nc(-c1ccc(C(C)(C)C)cc1)c1nccn12 [I-74, 4-(4-(tert-Butyl)phenyl)-N,N-dimethylimidazo[1,2-a]quinoxaline-7-carboxamide] | 5000 to 10000
C=CC(=O)Nc1ccc2c(c1)nc(-c1ccc(C(F)(F)F)cc1F)c1cccn12 [I-114, N-(4-(2-Fluoro-4-(trifluoromethyl)phenyl)pyrrolo[1,2-a]quinoxalin-7-yl) acrylamide] | ≤ 1000
Cc1ccc(-c2nc3cc(C(=O)O)ccc3n3ccnc23)cc1 [I-66, 4-(p-Tolyl)imidazo[1,2-a]quinoxaline-7-carboxylic acid] | 5000 to 10000
CC(C)(C)C1CCN(c2nc3cc(C(=O)O)ccc3n3cccc23)CC1 [I-37, 4-(4-(tert-Butyl)piperidin-1-yl)pyrrolo[1,2-a]quinoxaline-7-carboxylic acid] | > 10000

The next lines start with the values.

GI50 [nM] | Compound
≤ 1000 | C=CC(=O)NCc1cn2ccnc2c(Oc2cccc(C(F)(F)F)c2)n1 [I-171, N-((8-(3-(trifluoromethyl)phenoxy)imidazo[1,2-a]pyrazin-6-yl)methyl)acrylamide]
≤ 1000 | COc1nc(-c2ccc(C(F)(F)F)cc2)nc2cc(C(=O)N[C@H](C)CO)ccc12 [I-434, (R)—N-(1-hydroxypropan-2-yl)-4-methoxy-2-(4-(trifluoromethyl)phenyl)quinazoline-7-carboxamide]
≤ 1000 | O=C(/C=C/CF)NCc1cn2ccnc2c(-c2ccc(C(F)(F)F)cc2)n1 [I-214, (E)-4-fluoro-N-((8-(4-(trifluoromethyl)phenyl)imidazo[1,2-a]pyrazin-6-yl)methyl)but-2-enamide]
≤ 1000 | C=CC(=O)NC(C)c1cn2ccnc2c(-c2ccc(C(C)(C)C)cc2)n1 (stereo not drawn) [I-142, N-(1-(8-(4-(tert-butyl)phenyl)imidazo[1,2-a]pyrazin-6-yl)ethyl)acrylamide]
1000 to 5000 | O=C(O)c1cc2nc(N3CCC4(CC3)CC4)c3cccn3c2cn1 [I-281, 6-(6-azaspiro[2.5]octan-6-yl)pyrido[4,3-e]pyrrolo[1,2-a]pyrazine-3-carboxylic acid]
≤ 1000 | C=CC(=O)Nc1ccc2c(c1)nc(-c1ccc(C(C)(C)C)cc1)c1cccn12 [I-119, N-(4-(4-(tert-butyl)phenyl)pyrrolo[1,2-a]quinoxalin-7-yl)acrylamide]
1000 to 5000 | Cc1cc(-c2ccc(OC(F)(F)F)cc2)nc2cc(C(=O)N[C@H](C)CO)ccc12 [I-255, (R)—N-(1-hydroxypropan-2-yl)-4-methyl-2-(4-(trifluoromethoxy)phenyl)quinoline-7-carboxamide]
> 10000 | COC(=O)/C=C/c1cn2ccnc2c(-c2ccc(C(C)(C)C)cc2)n1 [I-151, Methyl (E)-3-(8-(4-(tert-butyl)phenyl)imidazo[1,2-a]pyrazin-6-yl)acrylate]
≤ 1000 | C=CC(=O)NC1CCN(c2cn3ccnc3c(-c3ccc(C(F)(F)F)cc3)n2)C1 (stereo not drawn) [I-227, N-(1-(8-(4-(trifluoromethyl)phenyl)imidazo[1,2-a]pyrazin-6-yl)pyrrolidin-3-yl)acrylamide]
> 10000 | CC(C)(C)c1ccc(-c2nc3cc(C(=O)NS(=O)(=O)C4CC4)ccc3n3cccc23)cc1 [I-124, 4-(4-(tert-Butyl)phenyl)-N-(cyclopropylsulfonyl)pyrrolo[1,2-a]quinoxaline-7-carboxamide]
≤ 1000 | COc1cc(-c2ccc(C(F)(F)F)cc2)nc2cc(C(=O)N[C@@H](C)CO)ccc12 [I-325, (S)—N-(1-hydroxypropan-2-yl)-4-methoxy-2-(4-(trifluoromethyl)phenyl)quinoline-7-carboxamide]
1000 to 5000 | Cc1cc(-c2ccc(OC(F)(F)F)cc2)nc2cc(C(=O)O)ccc12 [I-256, 4-methyl-2-(4-(trifluoromethoxy)phenyl)quinoline-7-carboxylic acid]
1000 to 5000 | O=C(O)c1ccc2c(c1)nc(-c1ccc(C(F)(F)F)cc1C(F)(F)F)c1cccn12 [I-199, 4-(2,4-bis(trifluoromethyl)phenyl)pyrrolo[1,2-a]quinoxaline-7-carboxylic acid]
> 10000 | O=C(O)c1ccc2c(c1)nc(OCc1cccc(C(F)(F)F)c1)c1cccn12 [I-131, 4-((3-(Trifluoromethyl)benzyl)oxy)pyrrolo[1,2-a]quinoxaline-7-carboxylic acid]
> 10000 | CC(C)(C)c1ccc(-c2ncc3ccc(C(=O)O)cn23)cc1 [I-145, 3-(4-(tert-Butyl)phenyl)imidazo[1,5-a]pyridine-6-carboxylic acid]
≤ 1000 | Cc1cc2c(-c3ccc(C(F)(F)F)cc3)nc3cc(C(=O)O)ccc3n2c1 [I-404, 2-Methyl-4-(4-(trifluoromethyl)phenyl)pyrrolo[1,2-a]quinoxaline-7-carboxylic acid]
1000 to 5000 | O=C(O)c1ccc2c(c1)nc(N1CCC3(CC1)CC3)c1ccnn12 [I-277, 4-(6-azaspiro[2.5]octan-6-yl)pyrazolo[1,5-a]quinoxaline-7-carboxylic acid]
1000 to 5000 | COc1cc(-c2ccc(C(F)(F)F)cc2)nc2cc(C3(O)COC3)ccc12 [I-419, 3-(4-methoxy-2-(4-(trifluoromethyl)phenyl)quinolin-7-yl)oxetan-3-ol]
≤ 1000 | C=CC(=O)NCc1nc2ncccn2c1-c1ccc(C(F)(F)F)cc1 [I-410, N-((3-(4-(trifluoromethyl)phenyl)imidazo[1,2-a]pyrimidin-2-yl)methyl)acrylamide]
≤ 1000 | Cc1cc2c(-c3ccc(C(F)(F)F)cn3)nc3cc(C(=O)O)ccc3n2c1 [I-405, 2-Methyl-4-(5-(trifluoromethyl)pyridin-2-yl)pyrrolo[1,2-a]quinoxaline-7-carboxylic acid]
≤ 1000 | C=CC(=O)NCc1cn2ccnc2c(-c2ccc(OC(F)(F)F)cc2)n1 [I-173, N-((8-(4-(trifluoromethoxy)phenyl)imidazo[1,2-a]pyrazin-6-yl)methyl)acrylamide]
1000 to 5000 | C=CC(=O)Nc1cn2ccnc2c(-c2ccc(C(C)(C)C)cc2)n1 [I-146, N-(8-(4-(tert-Butyl)phenyl)imidazo[1,2-a]pyrazin-6-yl)acrylamide]
≤ 1000 | C=CC(=O)Nc1ccc2c(C)cc(-c3ccc(C(F)(F)F)cn3)nc2c1 [I-252, N-(4-methyl-2-(5-(trifluoromethyl)pyridin-2-yl)quinolin-7-yl)acrylamide]
1000 to 5000 | C=CC(=O)NCc1cn2ccnc2c(Nc2cccc(OC(F)(F)F)c2)n1 [I-442, N-((8-((3-(trifluoromethoxy)phenyl)amino)imidazo[1,2-a]pyrazin-6-yl)methyl)acrylamide]
1000 to 5000 | COc1cc(-c2ccc(C(F)(F)F)cc2)nc2cc(NS(C)(=O)=O)ccc12 [I-383, N-(4-methoxy-2-(4-(trifluoromethyl)phenyl)quinolin-7-yl)methanesulfonamide]
≤ 1000 | Cc1cc(-c2ccc(C(F)(F)F)cc2)nc2cc(C(=O)N[C@@H](C)c3cccc(O)c3)ccc12 [I-269, (S)—N-(1-(3-hydroxyphenyl)ethyl)-4-methyl-2-(4-(trifluoromethyl)phenyl)quinoline-7-carboxamide]
